Consider one compound from patent US20040127475A1, “Apparatus and method for delivering compounds to a living organism” (Estrogen Vascular Technology, LLC, priority 1999, published 2004).

The assay has as its system porcine coronary arteries. Briefly: 17B-estradiol eluting stents in the pig model of instent restenosis, histomorphometric analysis at 30 days. In kind it is in vivo. Particulars: pre-clinical work, same stent, dose and loading process as Example 3. The source says: In another example, low and high dose 17B-estradiol eluting stents were compared with control stents in a randomized fashion in 18 porcine coronary arteries. Each artery of six pigs were randomly stented with either a control, low-dose or high-dose 17-estradiol eluting stent. All animals were sacrificed at 30 days for histomorphometric analysis.
The experiment and animal care conformed to National Institutes of Health and American Heart Association guidelines for the care and use of animals and were approved by the Institutional Animal Care and Use Committee at the Washington Hospital Center. Six domestic juvenile swine weighing 35-45 kg were used. […] Heart rate, blood pressure and electrocardiography were monitored throughout the procedure. […]
Coronary angiography was performed after intracoronary nitroglycerin (200 μg) administration and recorded on cine film (Phillips Cardiodiagnost; Shelton, Conn.). […]
The histopathologist was blinded to the stent types in each artery. […] The vessel injury score was determined by the method described by Kornowski et al. The scoring of endothelialization is based on percent of intimal surface covered by endothelial cells. […]
Data (mean±standard deviation) were analyzed to determine differences between treatment groups using an ANOVA with a post-hoc Bonferroni analysis. […]

As for `C[C@]12CC[C@@H]3c4ccc(O)cc4CC[C@H]3[C@@H]1CC[C@@H]2O` [17β-estradiol, 17β-Estradiol], the “reduction in in-stent neo-intimal formation” value turned out to be 40%.
